The record followed here is PubChem BioAssay (NCI).

Some test systems named below: ACHN renal; CCRF-CEM leukemia; EKVX NSCLC; HOP-92 NSCLC; M19-MEL melanoma; SK-MEL-2 melanoma; SR leukemia; SW-620 colon; UACC-62 melanoma; LOX IMVI melanoma.
Holding throughout (test): DTP human tumour cell line panel, 48 h

SMILES strings stand for the structures.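 Assay format: 96-well plates, 48-hour exposure. At the TGI there is no net growth.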

Usually TGI stands for the concentration giving total growth inhibition. A higher TGI goes with lower sensitivity of the cells. As for `CCCCC1N=CNc2c1ccc1c2[nH]c2ccccc21` (centres undefined), the TGI in the assay with ACHN renal was determined as 5.45 µM; in the assay on CCRF-CEM leukemia it was 5.89 µM; with EKVX NSCLC, 21.6 µM; with HOP-92 NSCLC, 9.72 µM; in the assay on M19-MEL melanoma, 11.8 µM; in the assay with SK-MEL-2 melanoma, 8.89 µM. For the same compound, the values for the total growth inhibition concentration (TGI) in the assay with SR leukemia, with SW-620 colon and with UACC-62 melanoma were 4.66 µM, 3.55 µM and 8.94 µM, respectively.

In the case of `CN(CCCCN)c1ccc2c(=O)[nH][nH]c(=O)c2c1`, the total growth inhibition concentration (TGI) was more than 100 µM in the assay with ACHN renal; more than 100 µM in the assay on CCRF-CEM leukemia; more than 100 µM in the assay with EKVX NSCLC; more than 100 µM with HOP-92 NSCLC; more than 100 µM in the assay on LOX IMVI melanoma; more than 37 µM with M19-MEL melanoma. The figures for the TGI with SK-MEL-2 melanoma, in the assay with SW-620 colon and in the assay with UACC-62 melanoma were more than 100 µM, more than 100 µM and more than 77 µM, respectively.

Take `NNC(=S)NN/C=C(\C=Nc1ccccc1)[N+](=O)[O-]`: the total growth inhibition concentration (TGI) in the assay on ACHN renal, in the assay on EKVX NSCLC, in the assay with HOP-92 NSCLC, in the assay with LOX IMVI melanoma, with M19-MEL melanoma and in the assay on SK-MEL-2 melanoma was more than 100 µM each time. For the same compound, the TGI with SW-620 colon and with UACC-62 melanoma was more than 100 µM throughout.

Take `C/C(CC(=O)Nc1cccc(C)c1C)=N\NC(N)=S`: the TGI in the assay with ACHN renal, with CCRF-CEM leukemia, with EKVX NSCLC, in the assay on HOP-92 NSCLC, in the assay on LOX IMVI melanoma and in the assay on M19-MEL melanoma was more than 100 µM throughout. In addition, the TGI with SK-MEL-2 melanoma was more than 100 µM; with SR leukemia it was 56.5 µM; in the assay with UACC-62 melanoma it was more than 100 µM.

On to `COc1ccc(NC(=O)C2=CC(=O)c3ccc(O)cc3C2=O)c(OC)c1`, for which the TGI with ACHN renal, in the assay with CCRF-CEM leukemia, in the assay with EKVX NSCLC, in the assay on HOP-92 NSCLC, in the assay on LOX IMVI melanoma and in the assay on M19-MEL melanoma was more than 100 µM in each case. Also, the TGI in the assay on SR leukemia, with SW-620 colon and in the assay on UACC-62 melanoma was more than 100 µM in each case.

Turning to `CN(CC1NCCCC1O)C12CC3CC(CC(C3)C1)C2` (centres undefined), the TGI in the assay on ACHN renal, with CCRF-CEM leukemia, with EKVX NSCLC, in the assay with HOP-92 NSCLC, in the assay with LOX IMVI melanoma and in the assay on M19-MEL melanoma was more than 100 µM throughout. In addition, the TGI with SW-620 colon and in the assay on UACC-62 melanoma was more than 100 µM in each case.

As for `c1ccc(N2N=NC3C4CC(C5c6ccccc6C45)C32)cc1` (centres undefined), the TGI in the assay on CCRF-CEM leukemia is more than 100 µM; in the assay with EKVX NSCLC, more than 100 µM; in the assay on HOP-92 NSCLC it was 54.6 µM; with LOX IMVI melanoma, 39.6 µM; in the assay on M19-MEL melanoma, 46.7 µM; with SR leukemia it was more than 100 µM. Also, the TGI with SW-620 colon and in the assay with UACC-62 melanoma was more than 100 µM each time.

For the compound `C[C@H]1CCC2C(CN3CCCCC3)C(=O)OC2[C@]2(C)C(=O)CC(N3CCCCC3)C12O` (some centres undefined), the concentration for total growth inhibition (TGI) in the assay with ACHN renal amounted to 9.73 µM; in the assay with CCRF-CEM leukemia, 10.1 µM; in the assay on EKVX NSCLC, 16.1 µM; in the assay with HOP-92 NSCLC, 7.54 µM; with M19-MEL melanoma, 23.9 µM; with SK-MEL-2 melanoma, 90.4 µM. Further, the total growth inhibition concentration (TGI) in the assay on SR leukemia came to 15.8 µM; in the assay on SW-620 colon, 10.3 µM; with UACC-62 melanoma it was 5.92 µM.

For the compound `CSCC(COC(C)=O)(CSC)c1ccncc1`, the total growth inhibition concentration (TGI) in the assay on ACHN renal, in the assay on CCRF-CEM leukemia, with EKVX NSCLC, in the assay on LOX IMVI melanoma, in the assay with M19-MEL melanoma and in the assay on SK-MEL-2 melanoma was more than 100 µM in each case. Also, the TGI with SR leukemia, in the assay on SW-620 colon and in the assay on UACC-62 melanoma was more than 100 µM each time.

For the compound `O=C(CC(=O)N1N=C(c2ccccc2)C(N=Nc2ccccc2Cl)C1=O)Nc1ccccc1Cl` (centres undefined), the TGI in the assay with ACHN renal was 99.6 µM; in the assay on EKVX NSCLC, more than 100 µM; with LOX IMVI melanoma, more than 100 µM; in the assay with M19-MEL melanoma it was more than 100 µM; with SK-MEL-2 melanoma, more than 100 µM; with SR leukemia it was 54.5 µM. Further, the TGI in the assay on SW-620 colon and with UACC-62 melanoma was more than 100 µM throughout.

On to `C/C(CC(=O)Nc1ccc([N+](=O)[O-])cc1)=N\Nc1ccc([N+](=O)[O-])cc1[N+](=O)[O-]`, for which the TGI in the assay with ACHN renal, in the assay on CCRF-CEM leukemia, in the assay on EKVX NSCLC, in the assay on HOP-92 NSCLC, in the assay on LOX IMVI melanoma and in the assay on M19-MEL melanoma was more than 100 µM throughout. Moreover, the TGI in the assay with SK-MEL-2 melanoma, with SW-620 colon and in the assay with UACC-62 melanoma was more than 100 µM each time.

As for `COC(=O)Cc1nn2c(nc1=O)sc1ccc3ccccc3c12`, the concentration for total growth inhibition (TGI) in the assay with ACHN renal, with CCRF-CEM leukemia, in the assay on EKVX NSCLC, in the assay with HOP-92 NSCLC, in the assay on LOX IMVI melanoma and in the assay on M19-MEL melanoma was more than 100 µM in each case. Besides, the TGI with SK-MEL-2 melanoma, with SR leukemia and in the assay with SW-620 colon was more than 100 µM throughout.

As to `CC(C)OC(=O)c1cccnc1/C=N/O`, the concentration for total growth inhibition (TGI) with ACHN renal, in the assay on CCRF-CEM leukemia, in the assay with EKVX NSCLC, with LOX IMVI melanoma, in the assay on M19-MEL melanoma and in the assay on SK-MEL-2 melanoma was more than 100 µM each time. Further, the concentration for total growth inhibition (TGI) with SW-620 colon and with UACC-62 melanoma was more than 100 µM throughout.

In the case of `NC(CSC1(c2ccc(Cl)cc2)c2ccccc2-c2ccccc21)C(=O)O` (centres undefined), the TGI in the assay on ACHN renal was 50.2 µM; with CCRF-CEM leukemia it was more than 100 µM; in the assay on EKVX NSCLC, more than 100 µM; in the assay with HOP-92 NSCLC, 47.4 µM; in the assay on LOX IMVI melanoma it was 30.3 µM; in the assay with SK-MEL-2 melanoma, 41.8 µM. Besides, the TGI with SR leukemia is 46.9 µM; in the assay with SW-620 colon, more than 100 µM; with UACC-62 melanoma, 34.4 µM.

As to `Cn1c2c(c3ccccc31)CCN(CCCN1CCN(c3ccccc3)CC1)C2=O`, the TGI in the assay on ACHN renal worked out at 44.7 µM; in the assay with CCRF-CEM leukemia, 65.7 µM; with EKVX NSCLC, 77.6 µM; in the assay with HOP-92 NSCLC, 31.7 µM; in the assay on LOX IMVI melanoma, 60 µM; in the assay on M19-MEL melanoma it was 38.2 µM. The TGI in the assay on SW-620 colon turned out to be 55.7 µM; in the assay on UACC-62 melanoma, 37.4 µM.
